In the supplement of paper PMC10307832:

Legend:
Assay in all cases: relative viability (nuclei count vs DMSO), 5 days (fraction); higher = more cells survive
[1] = test system: COR-L 105
Procedure, shortened: (§1)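 Dosing by pin tool came one day after lung cancer cell lines were seeded in 1536-well plates, using either one drug or a fixed anchor-drug dose plus five library-drug doses (not always all listed) in √10 steps. After 5 days, nuclei were counted on 4× images. Relative viability is treated-well nuclei count divided by vehicle-well nuclei count, and values are medians of duplicate plates.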

[2] = test system: LXF-289
Procedure, shortened: as §1

[3] = test system: EMC-BAC-2
Procedure, shortened: as §1

[4] = test system: NCI-H1666
Procedure, shortened: as §1

[5] = test system: NCI-H1915
Procedure, shortened: as §1

[6] = test system: HOP-62
Procedure, shortened: as §1

[7] = test system: HCC-15
Procedure, shortened: as §1

[8] = test system: UMC-11
Procedure, shortened: as §1

[9] = test system: NCI-H358
Procedure, shortened: as §1

[10] = test system: NCI-H441
Procedure, shortened: as §1

[11] = test system: NCI-H1975
Procedure, shortened: as §1

[12] = test system: ChaGo-K-1
Procedure, shortened: as §1

[13] = test system: NCI-H3122
Procedure, shortened: as §1

[14] = test system: CAL-12T
Procedure, shortened: as §1

[15] = test system: NCI-H1993
Procedure, shortened: as §1

[16] = test system: NCI-H522
Procedure, shortened: as §1

[17] = test system: NCI-H2085
Procedure, shortened: as §1

[18] = test system: NCI-H1755
Procedure, shortened: as §1

[19] = test system: HCC-78
Procedure, shortened: as §1

[20] = test system: NCI-H322M
Procedure, shortened: as §1

[21] = test system: NCI-H2023
Procedure, shortened: as §1

[22] = test system: EPLC-272H
Procedure, shortened: as §1

[23] = test system: NCI-H2126
Procedure, shortened: as §1

Compound: Clc1ccc(Nc2nnc(Cc3ccncc3)c3ccccc23)cc1 [Vatalanib] + Nc1nc2[nH]cc(CCc3ccc(C(=O)N[C@@H](CCC(=O)O)C(=O)O)cc3)c2c(=O)[nH]1 [Pemetrexed] (partner 0.2 µM)
- relative viability ([1]; first compound 0.04 µM): 1.34
- relative viability ([1]; first compound 0.1265 µM): 1.1
- relative viability ([1]; first compound 0.4 µM): 1.2
- relative viability ([1]; first compound 1.265 µM): 1.15
- relative viability ([1]; first compound 4 µM): 1.04
- relative viability ([2]; first compound 0.04 µM): 0.887
- relative viability ([2]; first compound 0.1265 µM): 0.879
- relative viability ([2]; first compound 0.4 µM): 0.955
- relative viability ([2]; first compound 1.265 µM): 0.908
- relative viability ([2]; first compound 4 µM): 0.822
- relative viability ([3]; first compound 0.04 µM): 0.452
- relative viability ([3]; first compound 0.1265 µM): 0.427
- relative viability ([3]; first compound 0.4 µM): 0.456
- relative viability ([3]; first compound 4 µM): 0.463
- relative viability ([4]; first compound 0.04 µM): 0.845
- relative viability ([4]; first compound 0.1265 µM): 0.844
- relative viability ([4]; first compound 0.4 µM): 0.843
- relative viability ([4]; first compound 1.265 µM): 0.799
- relative viability ([4]; first compound 4 µM): 0.901
- relative viability ([5]; first compound 0.04 µM): 0.505
- relative viability ([5]; first compound 0.1265 µM): 0.558
- relative viability ([5]; first compound 0.4 µM): 0.53
- relative viability ([5]; first compound 1.265 µM): 0.477
- relative viability ([5]; first compound 4 µM): 0.498
- relative viability ([6]; first compound 0.04 µM): 0.273
- relative viability ([6]; first compound 0.1265 µM): 0.336
- relative viability ([6]; first compound 0.4 µM): 0.277
- relative viability ([6]; first compound 1.265 µM): 0.275
- relative viability ([6]; first compound 4 µM): 0.349
- relative viability ([7]; first compound 0.04 µM): 0.234
- relative viability ([7]; first compound 0.1265 µM): 0.218
- relative viability ([7]; first compound 0.4 µM): 0.225
- relative viability ([7]; first compound 1.265 µM): 0.235
- relative viability ([7]; first compound 4 µM): 0.219
- relative viability ([8]; first compound 0.04 µM): 0.849
- relative viability ([8]; first compound 0.1265 µM): 0.808
- relative viability ([8]; first compound 0.4 µM): 0.844
- relative viability ([8]; first compound 1.265 µM): 0.791
- relative viability ([8]; first compound 4 µM): 0.794
- relative viability ([9]; first compound 0.04 µM): 0.158
- relative viability ([9]; first compound 0.1265 µM): 0.149
- relative viability ([9]; first compound 0.4 µM): 0.16
- relative viability ([9]; first compound 1.265 µM): 0.181
- relative viability ([9]; first compound 4 µM): 0.157
- relative viability ([10]; first compound 0.04 µM): 0.249
- relative viability ([10]; first compound 0.1265 µM): 0.215
- relative viability ([10]; first compound 0.4 µM): 0.257
- relative viability ([10]; first compound 1.265 µM): 0.265
- relative viability ([10]; first compound 4 µM): 0.274
- relative viability ([11]; first compound 0.04 µM): 0.265
- relative viability ([11]; first compound 0.1265 µM): 0.305
- relative viability ([11]; first compound 0.4 µM): 0.297
- relative viability ([11]; first compound 1.265 µM): 0.28
- relative viability ([11]; first compound 4 µM): 0.286
- relative viability ([12]; first compound 0.04 µM): 0.263
- relative viability ([12]; first compound 0.1265 µM): 0.294
- relative viability ([12]; first compound 0.4 µM): 0.265
- relative viability ([12]; first compound 1.265 µM): 0.258
- relative viability ([12]; first compound 4 µM): 0.26
- relative viability ([13]; first compound 0.04 µM): 0.195
- relative viability ([13]; first compound 0.1265 µM): 0.19
- relative viability ([13]; first compound 0.4 µM): 0.191
- relative viability ([13]; first compound 1.265 µM): 0.199
- relative viability ([13]; first compound 4 µM): 0.189
- relative viability ([14]; first compound 0.04 µM): 1.15
- relative viability ([14]; first compound 0.1265 µM): 1.15
- relative viability ([14]; first compound 0.4 µM): 1.19
- relative viability ([14]; first compound 1.265 µM): 1.12
- relative viability ([14]; first compound 4 µM): 1.22
- relative viability ([15]; first compound 0.04 µM): 0.581
- relative viability ([15]; first compound 0.1265 µM): 0.644
- relative viability ([15]; first compound 0.4 µM): 0.619
- relative viability ([15]; first compound 1.265 µM): 0.501
- relative viability ([15]; first compound 4 µM): 0.619
- relative viability ([16]; first compound 0.04 µM): 0.923
- relative viability ([16]; first compound 0.1265 µM): 0.861
- relative viability ([16]; first compound 0.4 µM): 1.24
- relative viability ([16]; first compound 1.265 µM): 0.86
- relative viability ([16]; first compound 4 µM): 0.945
- relative viability ([17]; first compound 0.04 µM): 0.844
- relative viability ([17]; first compound 0.1265 µM): 0.842
- relative viability ([17]; first compound 0.4 µM): 0.976
- relative viability ([17]; first compound 1.265 µM): 0.892
- relative viability ([17]; first compound 4 µM): 0.821
- relative viability ([18]; first compound 0.04 µM): 0.4
- relative viability ([18]; first compound 0.1265 µM): 0.504
- relative viability ([18]; first compound 0.4 µM): 0.461
- relative viability ([18]; first compound 1.265 µM): 0.416
- relative viability ([18]; first compound 4 µM): 0.38
- relative viability ([19]; first compound 0.04 µM): 0.924
- relative viability ([19]; first compound 0.1265 µM): 0.981
- relative viability ([19]; first compound 0.4 µM): 0.881
- relative viability ([19]; first compound 1.265 µM): 0.947
- relative viability ([19]; first compound 4 µM): 0.906
- relative viability ([20]; first compound 0.04 µM): 0.609
- relative viability ([20]; first compound 0.1265 µM): 0.656
- relative viability ([20]; first compound 0.4 µM): 0.678
- relative viability ([20]; first compound 4 µM): 0.572
- relative viability ([21]; first compound 0.04 µM): 0.263
- relative viability ([21]; first compound 0.1265 µM): 0.21
- relative viability ([21]; first compound 0.4 µM): 0.215
- relative viability ([21]; first compound 1.265 µM): 0.242
- relative viability ([21]; first compound 4 µM): 0.202
- relative viability ([22]; first compound 0.04 µM): 0.349
- relative viability ([22]; first compound 0.1265 µM): 0.334
- relative viability ([22]; first compound 0.4 µM): 0.781
- relative viability ([22]; first compound 1.265 µM): 0.295
- relative viability ([22]; first compound 4 µM): 0.376
- relative viability ([23]; first compound 0.04 µM): 0.68
- relative viability ([23]; first compound 0.1265 µM): 0.668
- relative viability ([23]; first compound 0.4 µM): 0.731
- relative viability ([23]; first compound 1.265 µM): 0.592
- relative viability ([23]; first compound 4 µM): 0.602
